According to publication PMC2637266, “Quantification of gamma-secretase modulation differentiates inhibitor compound selectivity between two substrates Notch and amyloid precursor protein” (Molecular Brain, 2008):
Where “and” joins values, the source holds several entries; their conditions need not be identical. Equal values may be shown once. Entries after “also recorded” stand apart in the source; their conditions may differ. Read-outs that look alike come from different tables or passages of the source.

Tests used:
[1] = tested on: zebrafish embryos; assay: Zebrafish embryo treatment, tail curvature phenotype; format: in vivo; details: 50 μM; for embryo morphology, tail curvature: 24 hpf to 48 hpf, 28°C; for embryo morphology, tail curvature at 4 dpf: kept for four days
Protocol: Measurements of in vitro γ-secretase activity and cell-based Aβ/NICD generation have shown different inhibition potencies. To examine the inhibitory effect in vivo, zebrafish embryos were treated with DAPT or cpd E. Because different γ-secretase inhibitors may impact various metabolic pathways in zebrafish embryos, especially during development, the phenotypes of zebrafish embryos treated with high concentrations of DAPT and cpd E were compared. The major phenotype we examined was curved tail caused by defective somitogenesis.
Figure 4 Treatment of zebrafish embryos with DAPT causes curved tails. A. A stock of DAPT or cpd E in DMSO was diluted in embryo medium, and increasing concentrations of DAPT or cpd E were applied to de-chorionated zebrafish embryos incubated at 28°C from 24 hpf to 48 hpf. Control embryos were mock-treated with embryo medium containing the same concentration of DMSO. […] B. DAPT- or cpd E-treated embryos were kept until 4 dpf, and images were acquired at 40 × magnification.
Zebrafish embryos were raised and staged according to Kimmel, et al.. Compounds were dissolved in egg water at various final concentrations, and 0.5% DMSO was used as a negative control. Prior to the treatment at 24 hour post fertilization, embryos were de-chorionated manually. Embryos were placed in a 24-well plate (5–6 embryos/well) and treated with the compound containing egg water. Embryos were incubated at 28°C, and photographic images were taken at 2 days and 4 days post fertilization (dpf).
Compound-treated embryos were observed under an OLYMPUS SZX12 microscope. For examination, embryos were removed from the compound containing medium and placed into 0.4% tricane (3-amino benzoic acidethylester, Sigma, St. Louis, MO) solution. Upon anesthetizing, embryos were placed in 3% methylcellulose for positioning and images were recorded with OLYMPUS Q-COLOR3 camera. Images were taken at the 40× magnification for embryos at 2 and 4 dpf.

[2] = molecular target: T1, γ-secretase cleavage of APP (Homo sapiens, UniProt P49768); assay: Aβ in conditioned media of APP expressing HEK293 cells transfected with NotchΔE, ELISA; format: cell-based; details: for IC50: HEK293, 8 hr treatment; for Aβ levels in cultured cells: high doses
T1 construct: endogenous in cells; host or cells: HEK293 stably expressing Swedish mutant human APP695, transiently transfected with NotchΔE
Protocol: Since many compounds could behave differently in vitro versus in culture cells, cpd E and DAPT were tested in cultured cells (Fig. 2). HEK293 cells stably expressing Swedish mutant APP were transiently transfected with NotchΔE, a truncated Notch construct that is readily cleaved by the γ-secretase to generate NICD for downstream signaling transduction. NotchΔE expressing cells were treated with increasing concentrations of DAPT or cpd E. Cell lysates were subjected to WB for measuring the generation of NICD (Fig. 2A), and conditioned media were collected for Aβ measurement by ELISA (Fig. 2B,C).
(§1) Figure 2 Generation of NICD and Aβ from NotchΔE and APP expressing cells. A. Twenty four hrs after the construct carrying NotchΔE was transfected into APP expressing HEK293 cells, cells were treated with DAPT or cpd E for 8 hr and lysed for WB with antibody 1744 to specifically detect the N-terminus of NICD. Bottom panel, the antibody against α-tubulin was applied to normalize the amounts of lysates used for WB. B. Levels of NICD determined by WB were quantified by densitometry (dotted line). Levels of Aβ generated from the γ-secretase cleavage of APP in the presence of DAPT were determined by ELISA. […] C. NICD (dotted line) and Aβ (solid line) production from cpd E-treated cells were compared. […] D. A luciferase reporter construct driven by HES1 promoter was transfected into HEK293 cells followed by treatment with cpd E or DAPT.
Sandwich ELISAs for Aβ were performed as described. The capture antibodies, 2G3 (to Aβ residues 33–40) and 4G8 (to Aβ residues 17–24), were used for Aβ40 and Aβ total species, respectively. The detecting antibodies were biotinylated 82E1 (to Aβ residues 1–16) for Aβ1–40/total or biotinylated 266 for Aβx-40 species. The use of mid-region and C-terminal capturing antibodies and N-terminal detecting antibody for chimeric "Notch-Aβ-like" peptide (Nβ*) has been documented. The combination of several capture/detecting antibodies are use to measure Aβ and Nβ* derived from different precursors. The capture antibody 2G3 and detecting antibody 82E1 were used for measuring Nβ* from APP-α-Notch expressing cells. Since the APP-α-NOTCH is the fusion protein with its juxtamembrane portion of the APP ectodomain (the α-secretase cleavage region) replaced by the corresponding sequence in Notch, the epitopes in APP sequence could still be recognized by 2G3 (C-terminus) and 82E1 (N-terminus). […]
Human embryonic kidney (HEK) 293 cells stably expressing Swedish mutant human APP695 were transfected with different cDNA constructs and maintained in 200 μg/ml G418 (Invitrogen, Carlsbad, CA). […] Conditioned media were collected for ELISA, and cell lysates were analyzed by Western blot as described. […]

[3] = tested on: NICD dependent luciferase activity (Hes-1 reporter); assay: Hes-Luc luciferase reporter assay in HEK293 cells co-transfected with NotchΔE; format: cell-based, human; details: at concentrations that completely blocked Aβ generation
Protocol: as §1
Semi-quantification of NICD levels was detected by WB, and the inhibition profile of DAPT (Fig. 2B) and cpd E (Fig. 2C) were compared on NICD and Aβ generation in cultured cells. […] Since Notch signaling and levels of NICD can be examined by quantifying the expression of the Notch target gene, a Hes-1 reporter construct (Hes-Luc) was generated by insertion of three Su(H) binding sequences in the pGL3-pro luciferase reporter vector. […]

SMILES	embryo morphology, tail curvature [1]	embryo morphology, tail curvature at 4 dpf [1]	IC50 ([2]; read-out: concentration inhibiting levels of Aβ to 50% in cultured cells) [nM]	Aβ levels in cultured cells [2]	luciferase activities remained [3]	embryo morphology, tail curvature ([1]; listed as Cpd E)	IC50 ([2]; IC50 for Aβ generation (levels of Aβ reduced to 50%) in cultured cells)
C[C@H](NC(=O)Cc1cc(F)cc(F)c1)C(=O)N[C@H](C(=O)OC(C)(C)C)c1ccccc1 [DAPT, N-[N-(3,5-Difluorophenacetyl-L-alanyl)]-S-phenylglycine t-Butyl Ester]	much shorter and curved tail; also recorded: caused curved trunk and tails; also recorded: curvature of zebrafish tail was found	continued to show the curvature of the tails	~500	efficiently reduced to almost undetectable levels	about 50%		
C[C@H](NC(=O)Cc1cc(F)cc(F)c1)C(=O)N[C@H]1N=C(c2ccccc2)c2ccccc2N(C)C1=O [cpd E, (S,S)-2-[2-(3,5-Difluorophenyl)-acetylamino]-N-(1-methyl-2-oxo-5-phenyl-2,3-dihydro-1H-benzo [e] [1,4]diazepin-3-yl)-propionamide]	lack of dramatic phenotypic alteration	minor effect on embryo morphology		efficiently reduced to almost undetectable levels	about 50%	did not show any curvature	~8 nM and 5 nM
